Laboratory results reported in the Kinase Knowledgebase extract (Sharma et al. 2016).

Biological target: MAPK14 (UniProt Q16539)
Test: Inhibition of MAPK14 Kinase Activity

Sequence of MAPK14 (Q16539 whole entry, looked up): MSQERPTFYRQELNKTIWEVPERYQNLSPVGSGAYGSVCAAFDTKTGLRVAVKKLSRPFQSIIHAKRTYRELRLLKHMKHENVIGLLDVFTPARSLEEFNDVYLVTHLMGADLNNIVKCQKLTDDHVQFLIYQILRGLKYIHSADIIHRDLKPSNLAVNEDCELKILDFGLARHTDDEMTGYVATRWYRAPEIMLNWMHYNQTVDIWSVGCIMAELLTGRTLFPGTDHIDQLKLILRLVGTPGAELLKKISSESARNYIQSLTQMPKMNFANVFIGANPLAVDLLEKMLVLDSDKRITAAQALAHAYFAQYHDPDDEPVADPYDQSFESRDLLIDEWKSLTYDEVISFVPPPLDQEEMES

Row | Compound | IC50
1 | CSc1ccc2nccc(-c3c(-c4ccccn4)nn4c3CCC4)c2c1 | < 20 µM
2 | O=C(NCCc1c[nH]cn1)c1ccc2c(-c3c(-c4ccccn4)nn4c3CCC4)ccnc2c1 | < 20 µM
3 | c1ccc(-c2nn3c(c2-c2ccc4ccccc4c2)CCC3)nc1 | < 20 µM
4 | OCCCSc1ccc2c(-c3c(-c4ccccn4)nn4c3CCC4)ccnc2c1 | < 20 µM
5 | Cc1cccc(-c2nn3c(c2-c2ccnc4ccc(C(=O)O)cc24)CCC3)n1 | < 20 µM
6 | COC(=O)c1ccc2c(-c3c(-c4ccccn4)nn4c3CCC4)ccnc2c1 | < 20 µM
7 | Cc1cccc(-c2nn3c(c2-c2ccc4c(c2)OCO4)CCC3)n1 | < 20 µM

The next lines start with the values.

Row | IC50 | Compound
8 | < 20 µM | c1ccc(-c2nn3c(c2-c2ccnc4cc(OCCCn5ccnc5)ccc24)CCC3)nc1
9 | < 20 µM | Cc1cccc(-c2nn3c(c2-c2ccnc4ccc(-c5ccc(F)cc5)cc24)CCC3)n1
10 | < 20 µM | CN1CCN(CCCOc2ccc3c(-c4c(-c5ccccn5)nn5c4CCC5)ccnc3c2)CC1
11 | < 20 µM | Cc1cccc(-c2nn3c(c2-c2ccnc4cc(N)ccc24)CCC3)n1
12 | < 20 µM | COc1ccc2c(-c3c(-c4ccccn4)nn4c3CCC4)ccnc2c1
13 | < 20 µM | CN(C)CC(=O)Nc1ccc2c(-c3c(-c4ccccn4)nn4c3CCC4)ccnc2c1
14 | < 20 µM | Cc1cccc(-c2nn3c(c2-c2ccc(F)cc2)CC[C@@H]3CC#N)n1
15 | < 20 µM | CNC(=O)c1ccc2c(-c3c(-c4ccccn4)nn4c3CCC4)ccnc2c1
16 | < 20 µM | Fc1ccc(-c2nn3c(c2-c2ccnc4ccccc24)CCC3)cc1
